In patent publication US20110275673A1, “INHIBITORS OF SPHINGOSINE KINASE 1” (priority 2008, published 2011) one finds IC50 data, which are given here for 31 molecules.

For this assay, the target named is T1, SPHK-1 (Homo sapiens, UniProt Q9NYA1).
T1 construct: purchased BPS Bioscience
Nature of the assay: Reporter Assay: sphingosine kinase conversion of fluorescein-labeled sphingosine, read on Lab Chip 3000. The format is biochemical. Conditions: 2 μM Fl-sphingosine, 25 μM ATP, 300 ng/ml SK1, 1 hour at room temperature; from percent conversion of substrate to product; read-out: SPHK-1 IC50 (n =). Here is the method:
Sphingosine kinase is a 49 kDa enzyme that catalyzes the formation of sphingosine-1-phosphate (S-1-P) from sphingosine.
Fluorescein labeled sphingosine was obtained from Echelon Biosciences (S-100F). Buffer reagents (1 M Hepes, 10 triton x-100, 100% glycerol, dithiothreitol 1 M MgCl2, ATP, 500 mM EDTA and DMSO) were purchased from Sigma. Coating reagent (CR-3), was obtained from Caliper Life Sciences.
0.05% Triton X-100, 2.5% glycerol, 0.1% CR-3, and 0,6% DMSO. Termination butler included 100 mM Hepes (pH 7.5), 40 mM EDTA, 0.05% Triton X-100, 2.5% glycerol, 0.3% CR-3, and 0.6% DMSO.
All assay components were made in reaction buffer. […] The assaylvas allowed to incubate at room temperature sealed and protected from light for 1 hour.
After 1 hour, 10 μl of termination buffer was added to terminate, the reaction, and the plate was read on a Lab Chip 3000. The plate was read for one cycle. The Lab Chip separated substrate and product based on charge.
Results were calculated based on percent conversion of substrate to product using the following formula: […]
Percent inhibition and IC50's for compounds of the invention were determined using the percent conversion values obtained horn the Lab Chip.
In general terms: A reporter such as luciferase makes a cellular process visible.

Structures can show the parent of a compound that is named as a salt. Bounds are passed on as bounds.

T1 sequence (Q9NYA1 whole entry): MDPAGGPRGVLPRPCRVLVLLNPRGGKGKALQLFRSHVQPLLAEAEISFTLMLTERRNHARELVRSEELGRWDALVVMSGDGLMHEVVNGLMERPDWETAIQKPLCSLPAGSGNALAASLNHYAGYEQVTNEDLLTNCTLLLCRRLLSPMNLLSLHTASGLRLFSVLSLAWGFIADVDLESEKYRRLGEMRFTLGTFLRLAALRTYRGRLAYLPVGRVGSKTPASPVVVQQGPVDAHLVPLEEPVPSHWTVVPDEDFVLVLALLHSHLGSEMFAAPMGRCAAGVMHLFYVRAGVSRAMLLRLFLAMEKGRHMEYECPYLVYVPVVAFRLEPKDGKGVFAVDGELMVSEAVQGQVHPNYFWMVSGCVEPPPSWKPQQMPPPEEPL

With `CCCCCCCC(O)CCCc1ccc(NC(=O)[C@H]2NCC[C@@H]2O)cc1` (stereo partly drawn) [Example 42, (2S,3S)-3-hydroxy-N-(4-(4-hydroxy-undecyl)phenyl) pyrrolidine-2-carboxamide], the IC50 was 120 nM. As for `O=C(NCc1ccc2oc(CCOc3ccc(F)cc3)cc2c1)[C@H]1NCC[C@@H]1O` [Example 111, (2S,3S)—N-((2-(2-(4-Fluorophenoxy)ethyl)benzofuran-5-yl)methyl)-3-hydroxypyrrolidine-2-carboxamide], the IC50 came out at 5000 nM. To `CC(C)Cc1ccc(-c2nc(-c3ccc(CNC(=O)[C@H]4NCC[C@@H]4O)cc3)no2)cc1` [Example 78, (2S,3S)-3-Hydroxy-N-(4-(5-(4-isobutylphenyl)-1,2,4-oxadiazol-3-yl)benzyl)pyrrolidine-2-carboxamide] belongs 4400 nM; to `CCCCCCCCc1ccc(NC(=O)[C@H](CO)NC)cc1` [Example 51, (S)-3-Hydroxy-2-(methylamino)-N-(4-octylphenyl) propanamide], 2800 nM. For `CCCCCCCc1ccc(-c2ccc(NC(=O)[C@H]3NCC[C@@H]3O)cc2)nc1` [Example 104, (2S,3S)—N-(4-(5-heptylpyridin-2-yl)phenyl)-3-hydroxypyrrolidine-2-carboxamide], the concentration for half-maximal inhibition (IC50) stood at 1600 nM. With `CCCCCCCc1ccc(CNC(=O)[C@H]2NCC[C@@H]2O)cc1` [Example 37, (2S,3S)-N-(4-heptylbenzyl)-3-hydroxy-pyrrolidine-2-carboxamide], the IC50 turned out to be 470 nM. Consider `CCCCCCCCc1ccc(NC(=O)[C@H](N)[C@H](C)O)cc1` [Example 30, (2R,3S)-2-Amino-3-hydroxy-N-(4-octylphenyl) butanamide], for which the 50% inhibitory concentration (IC50) amounted to 2100 nM. As to `CCCCCCSCCCCc1ccc(NC(=O)[C@H]2NCC[C@@H]2O)cc1` [Example 41, (2S,3S)-N-(4-(4-(hexylthio)butyl)phenyl)-3-hydroxy-pyrrolidine-2-carboxamide], the IC50 was determined as 2 nM. For `CCCCCCCCCCCCc1ccc(NC(=O)[C@@H](N)[C@@H](C)O)cc1` [Example 8, (2S,3R)-2-Amino-N-(4-dodecylphenyl)-3-hydroxy-butanamide], the IC50 was found to be 190 nM. The same measure for `CCCCCCCCc1ccc(CCNC(=O)[C@H]2NCC[C@@H]2O)cc1` [Example 44, (2S,3S)-3-hydroxy-N-(4-octylphenethyl) pyrrolidine-2-carboxamide]: 6500 nM; for `O=C(Nc1ccc(CCCC2CCCCC2)cc1)[C@H]1NCC[C@@H]1O` [Example 50, (2S,3S)-N-(4-(3-cyclohexyl-propyl)phenyl)-3-hydroxy-pyrrolidine-2-carboxamide]: 950 nM; for `O=C(NCc1cc(F)c2oc(CC3CCCC3)cc2c1)[C@H]1NCC[C@@H]1O` [Example 120, (2S,3S)—N-((2-(Cyclopentylmethyl)-7-fluorobenzofuran-5-yl)methyl)-3-hydroxypyrrolidine-2-carboxamide]: 2300 nM.

As for `CCCCCCCc1ccc(-c2ccc(NC(=O)[C@@H](N)[C@@H](C)O)cc2)nc1` [Example 101, (2S,3R)-2-amino-N-(4-(5-heptylpyridin-2-yl)phenyl)-3-hydroxybutanamide], the IC50 worked out at 900 nM. The same measure for `O=C(NCc1ccc2oc(CC3CCCCC3)cc2c1)[C@H]1NCC[C@@H]1O` [Example 116, (2S,3S)—N-((2-(Cyclohexylmethyl)benzofuran-5-yl)methyl)-3-hydroxypyrrolidine-2-carboxamide]: 110 nM. Consider `CCCCCCCCc1cc2ccc(CNC(=O)[C@H]3NCC[C@@H]3O)cc2o1` [Example 112, (2S,3S)-3-Hydroxy-N-((2-octylbenzofuran-6-yl)methyl)pyrrolidine-2-carboxamide], for which the IC50 worked out at 490 nM.

On to `CCCCCCCCc1ccc([C@H](C)NC(=O)[C@H]2NCC[C@@H]2O)cc1` [Example 27, (2S,3S)-3-Hydroxy-N-((S)-1-(4-octylphenyl)ethyl) pyrrolidine-2-carboxamide], for which the IC50 is 190 nM. The same measure for `C[C@@H](O)[C@H](N)C(=O)Nc1ccc(CCCCCCCOc2ccc(F)cc2)cc1` [Example 17, (2S,3R)-2-Amino-N-(4-(7-(4-fluorophenoxy)heptyl)phenyl)-3-hydroxy-butanamide]: 3600 nM. Consider `CCCCCCCCc1ccc(NC(=O)[C@@H](NCC2CCCCC2)[C@H](C)O)cc1` [Example 48, (2S,3S)-2-(cyclohexyl-methyl-amino)-3-hydroxy-N-(4-octylphenyl) butanamide], for which the IC50 was over 1000 nM. With `CCCCCCCCCCCc1ccc(NC(=O)[C@@H](N)[C@@H](C)O)cc1` [Example 7, (2S,3R)-2-Amino-3-hydroxy-N-(4-undecylphenyl) butanamide], the IC50 was determined as 110 nM. To `O=C(NCc1cc(F)c2oc(C3CCCCC3)cc2c1)[C@H]1NCC[C@@H]1O` [Example 122, (2S,3S)—N-((2-Cyclohexyl-7-fluorobenzofuran-5-yl)methyl)-3-hydroxypyrrolidine-2-carboxamide] belongs 790 nM.

For `O=C(NCc1ccc(-n2cc(CCc3ccccc3)cn2)cc1)[C@H]1NCC[C@@H]1O` [Example 69, (2S,3S)-3-Hydroxy-N-(4-(4-phenethyl-1H-pyrazol-1-yl)benzyl)pyrrolidine-2-carboxamide], the IC50 is 65 nM. Regarding `CCCCCCCCCCc1ccc(NC(=O)[C@@H](N)[C@@H](C)O)cc1` [Example 6, (2S,3R)-2-Amino-N-(4-decylphenyl)-3-hydroxy-butanamide], the IC50 is 46 nM. To `CCCCCCc1cc2cc(CNC(=O)[C@H]3NCC[C@@H]3O)ccc2o1` [Example 114, (2S,3S)—N-((2-Hexylbenzofuran-5-yl)methyl)-3-hydroxypyrrolidine-2-carboxamide] belongs 530 nM; to `CCCCCCCCc1ccc(NC(=O)[C@@H](N)CCCCO)cc1` [Example 52, (S)-2-Amino-6-hydroxy-N-(4-octylphenyl) hexanamide], 4000 nM; to `CCCCC(=O)CCCCCc1ccc(NC(=O)[C@@H](N)[C@@H](C)O)cc1` [Example 33, (2S,3R)-2-amino-3-hydroxy-N-(4-(6-oxodecyl)phenyl) butanamide], 6100 nM. Consider `CCCCCCCCc1ccc(O)c(NC(=O)[C@H]2NCC[C@@H]2O)c1` [Example 58, hydrochloride], for which the half-maximal inhibitory concentration (IC50) was found to be 3600 nM. On to `CCCCCCCCc1cc2cc(CNC(=O)[C@H]3NCC[C@@H]3O)ccc2o1` [Example 107, (2S,3S)-3-Hydroxy-N-((2-octylbenzofuran-5-yl)methyl)pyrrolidine-2-carboxamide], for which the IC50 stood at 31 nM. To `CCCCCCCCc1ccc(-c2ccc(NC[C@@H](N)[C@@H](C)O)cc2)cc1` [Example 60, (2R,3R)-3-Amino-4-(4′-octylbiphenyl-4-ylamino)butan-2-ol] belongs 2300 nM; to `CC[C@H](NC(=O)[C@H]1NCC[C@@H]1O)c1ccc(-n2cc(CCc3ccccc3)nn2)cc1` [Example 66, (2S,3S)-3-Hydroxy-N—((S)-1-(4-(4-phenethyl-1H-1,2,3-triazol-1-yl)phenyl)propyl)pyrrolidine-2-carboxamide], 140 nM.

Regarding `CCCCCCCCc1ccc(NC(=O)[C@@H](N)CO)cc1` [Example 4, (S)-2-Amino-3-hydroxy-N-(4-octylphenyl) propanamide], the IC50 turned out to be 4300 nM.

For the molecule `O=C(NCc1ccc2oc(C3CCCCC3)cc2c1)[C@H]1NCC[C@@H]1O` [Example 115, (2S,3S)—N-((2-Cyclohexylbenzofuran-5-yl)methyl)-3-hydroxypyrrolidine-2-carboxamide], the IC50 is 1200 nM.

What is called IC50 is the concentration that gives 50% inhibition.
